According to PMC2932438 (Journal of pharmaceutical and biomedical analysis, 2010):

Legend:
[1] = test system: T98G glioma cell line; assay: MTS proliferation assay; type: cell-based; conditions: Homo sapiens, 48 h, read-out: IC50 values T98G cell line
[2] = test system: ERRα; conditions: cited from earlier work
[3] = molecular target: T1, immobilized ERRα ligand binding domain (Homo sapiens, UniProt P11474); assay: Retention on the ERRα column; conditions: data not shown
T1 sequence (P11474 193-421 limits assumed): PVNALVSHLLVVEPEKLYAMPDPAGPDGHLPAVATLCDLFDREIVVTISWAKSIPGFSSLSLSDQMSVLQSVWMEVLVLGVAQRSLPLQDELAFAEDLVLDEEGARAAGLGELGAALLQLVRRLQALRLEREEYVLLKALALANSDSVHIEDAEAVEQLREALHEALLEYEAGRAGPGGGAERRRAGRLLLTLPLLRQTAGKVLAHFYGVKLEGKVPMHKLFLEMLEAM

[4] = molecular target: ERRγ; conditions: cited from earlier work
[5] = molecular target: T2, immobilized ERRγ ligand binding domain (Homo sapiens, UniProt P62508); assay: Non-linear chromatography
T2 sequence (P62508 233-457 limits assumed): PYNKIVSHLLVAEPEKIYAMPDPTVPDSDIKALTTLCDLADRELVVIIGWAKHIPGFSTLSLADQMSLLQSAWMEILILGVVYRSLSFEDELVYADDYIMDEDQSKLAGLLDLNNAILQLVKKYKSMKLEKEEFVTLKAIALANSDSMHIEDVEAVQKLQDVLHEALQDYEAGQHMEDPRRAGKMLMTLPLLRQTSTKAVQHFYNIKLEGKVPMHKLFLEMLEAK

Structure (SMILES)	IC50 [1] [nM]	affinity for the ERRα [2]	specific retention on the ERRα column [3]	Ki [4] [nM]	Kd [5] [nM]
CC/C(=C(\c1ccc(O)cc1)c1ccc(OCCN(C)C)cc1)c1ccccc1 [4-hydroxy tamoxifen]	14500	no affinity	not specifically retained	75	
CC/C(=C(\c1ccc(O)cc1)c1ccc(OCCNC)cc1)c1ccccc1 [Endoxifen]	3400	no affinity	not specifically retained		43.2
CC/C(=C(\c1ccccc1)c1ccc(OCCN(C)C)cc1)c1ccccc1 [Tamoxifen]		no affinity			
